Measured values taken from ChEMBL document CHEMBL1125092, “Nonneurotoxic tetralin and indan analogues of 3,4-(methylenedioxy)amphetamine (MDA)” (J Med Chem, 1990).

Tests used:
Rattus norvegicus [1] = experiment: Tested for stimulus generation in rats trained to discriminate LSD from saline at a dose 2.34 (umol/kg) (number of animals = 10); format: functional
Rattus norvegicus [2] = species on record: Rattus norvegicus; experiment: Bmax for compound was evaluated in rat hippocampal homogenate; format: tissue-based; settings: Hippocampus
Rattus norvegicus [3] = experiment: Tested for stimulus generation in rats trained to discriminate +/-MDMA from saline at 4.68 (umol/kg), (number of animals = 8); format: functional
Rattus norvegicus [4] = experiment: Monoamine levels in rat brain were evaluated after subcutaneous administration of 40 mg/kg for NE; format: functional
Rattus norvegicus [5] = experiment: Monoamine levels in rat hippocampus were evaluated after subcutaneous administration of 40 mg/kg for 5-HT; format: functional
Rattus norvegicus [6] = experiment: Percentage of animals disrupted was determined in groups of LSD trained rats at a dose of 2.34(uM/kg) (no. of animals = 10); format: functional
Rattus norvegicus [7] = experiment: Monoamine levels in rat brain were evaluated after subcutaneous administration of 40 mg/kg for HVA; format: functional
Rattus norvegicus [8] = experiment: Tested for stimulus generation in rats trained to discriminate LSD from saline at a dose 0.59(uM/kg), (number of animals = 11); format: functional
Rattus norvegicus [9] = experiment: Percentage of animals disrupted was determined in groups of LSD trained rats at a dose of 4.68(uM/kg) (no. of animals = 15); format: functional
Rattus norvegicus [10] = experiment: Percentage of animals disrupted was determined in groups of MDMA trained rats at a dose 2.34 (uM/kg), (no.of animals=10); format: functional
Rattus norvegicus [11] = experiment: Monoamine levels in rat brain were evaluated after subcutaneous administration of 40 mg/kg for 5-HT; format: functional
Rattus norvegicus [12] = experiment: Hallucinogenic property was determined in groups of LSD trained rats and percentage of animals disrupted was reported at a dose 0.59(uM/kg), (number of animals = 11); format: functional
[13] = target: T1, Sodium-dependent serotonin transporter (Rattus norvegicus, UniProt P31652); experiment: Binding affinity was determined towards serotonin uptake site in presence of [3H]paroxetine radioligand in rat hippocampal homogenate; format: tissue-based, Hippocampus
T1 sequence (P31652 whole entry): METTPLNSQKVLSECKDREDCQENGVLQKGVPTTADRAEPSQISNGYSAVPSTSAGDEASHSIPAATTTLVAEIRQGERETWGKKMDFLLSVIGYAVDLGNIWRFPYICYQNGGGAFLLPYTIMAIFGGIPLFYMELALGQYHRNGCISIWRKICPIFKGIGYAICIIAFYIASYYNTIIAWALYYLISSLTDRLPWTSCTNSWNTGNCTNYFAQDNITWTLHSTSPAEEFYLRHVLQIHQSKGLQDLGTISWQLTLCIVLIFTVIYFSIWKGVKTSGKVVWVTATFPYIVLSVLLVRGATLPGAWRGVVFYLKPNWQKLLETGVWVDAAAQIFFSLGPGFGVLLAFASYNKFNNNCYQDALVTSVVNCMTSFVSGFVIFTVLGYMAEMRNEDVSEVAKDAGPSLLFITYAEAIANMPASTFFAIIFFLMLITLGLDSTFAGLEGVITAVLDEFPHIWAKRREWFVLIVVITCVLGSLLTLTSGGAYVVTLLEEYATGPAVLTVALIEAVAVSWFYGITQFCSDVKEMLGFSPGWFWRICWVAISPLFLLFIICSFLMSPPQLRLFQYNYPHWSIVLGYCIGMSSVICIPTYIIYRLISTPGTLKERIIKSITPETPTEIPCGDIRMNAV

Rattus norvegicus [14] = experiment: Percentage of animals disrupted was determined in groups of MDMA trained rats at a dose 9.36 (uM/kg), (no.of animals=10); format: functional
Rattus norvegicus [15] = experiment: Monoamine levels in rat brain were evaluated after subcutaneous administration of 40 mg/kg for 5-HIAA; format: functional
Rattus norvegicus [16] = experiment: Monoamine levels in rat hippocampus were evaluated after subcutaneous administration of 40 mg/kg for 5-HIAA; format: functional
Rattus norvegicus [17] = experiment: Percentage of animals disrupted was determined in groups of LSD trained rats at a dose of 9.36(uM/kg) (no. of animals =6); format: functional
Rattus norvegicus [18] = experiment: Percentage of animals disrupted was determined in groups of LSD trained rats at a dose of 1.17(uM/kg)(no. of animals =16); format: functional
Rattus norvegicus [19] = experiment: Tested for stimulus generation in rats trained to discriminate +/-MDMA from saline at 2.34 (umol/kg), (number of animals = 10); format: functional
Rattus norvegicus [20] = experiment: Tested for stimulus generation in rats trained to discriminate +/-MDMA from saline at 9.36 (umol/kg), (number of animals = 10); format: functional
Rattus norvegicus [21] = experiment: Tested for stimulus generation in rats trained to discriminate LSD from saline at a dose 4.68 (umol/kg),(number of animals = 15); format: functional
Rattus norvegicus [22] = experiment: Percentage of animals disrupted was determined in groups of MDMA trained rats at a dose 4.68 (uM/kg), (no.of animals=8); format: functional
Rattus norvegicus [23] = experiment: Tested for stimulus generation in rats trained to discriminate +/-MDMA from saline at 1.17 (umol/kg), (number of animals = 8); format: functional
Rattus norvegicus [24] = experiment: Monoamine levels in rat brain were evaluated after subcutaneous administration of 40 mg/kg for DOPAC; format: functional
Rattus norvegicus [25] = experiment: Hallucinogenic property was determined in groups of MDMA trained rats and percentage of animals disrupted was reported at a dose 1.17 (umol/kg), (number of animals = 8); format: functional
Rattus norvegicus [26] = experiment: Tested for stimulus generation in rats trained to discriminate LSD from saline at a dose 1.17 (umol/kg) (number of animals =16); format: functional
Rattus norvegicus [27] = species on record: Rattus norvegicus; experiment: Bmax for compound was evaluated in rat cortical homogenate; format: tissue-based
Rattus norvegicus [28] = experiment: Monoamine levels in rat brain were evaluated after subcutaneous administration of 40 mg/kg for DA; format: functional
[29] = target: T1, Sodium-dependent serotonin transporter; experiment: Binding affinity was determined towards serotonin uptake site in presence of [3H]paroxetine radioligand in rat brain cortical homogenate; format: tissue-based
Rattus norvegicus [30] = experiment: Monoamine levels in at hippocampus were evaluated after subcutaneous administration of 40 mg/kg for NE; format: functional

NC1Cc2cc3c(cc2C1)OCO3
SDL (Rattus norvegicus [1]): 38% | Bmax (Rattus norvegicus [2]): 675 fM/g | SDL (Rattus norvegicus [3]): 63% | Monoamine level (Rattus norvegicus [4]): 395 pg/mg | Monoamine level (Rattus norvegicus [5]): 273 pg/mg | D (Rattus norvegicus [6]): 20% | Monoamine level (Rattus norvegicus [7]): 193 pg/mg | SDL (Rattus norvegicus [8]): 13% | D (Rattus norvegicus [9]): 47% | D (Rattus norvegicus [10]): 20% | Monoamine level (Rattus norvegicus [11]): 330 pg/mg | D (Rattus norvegicus [12]): 27% | Kd [13]: 0.127 nM | D (Rattus norvegicus [14]): 10% | Monoamine level (Rattus norvegicus [15]): 329 pg/mg | Monoamine level (Rattus norvegicus [16]): 473 pg/mg | D (Rattus norvegicus [17]): 91% | D (Rattus norvegicus [18]): 50% | SDL (Rattus norvegicus [19]): 50% | SDL (Rattus norvegicus [20]): 100% | SDL (Rattus norvegicus [21]): 25% | D (Rattus norvegicus [22]): 0% | SDL (Rattus norvegicus [23]): 13% | Monoamine level (Rattus norvegicus [24]): 187 pg/mg | D (Rattus norvegicus [25]): 0% | SDL (Rattus norvegicus [26]): 50% | Bmax (Rattus norvegicus [27]): 918 fM/g | Monoamine level (Rattus norvegicus [28]): 130 pg/mg | Kd [29]: 0.104 nM | Monoamine level (Rattus norvegicus [30]): 459 pg/mg
